Like-named read-outs stand apart in the source and are kept apart here.
Legend:
transferrin receptors = assay: regulation of transferrin receptors on drug-sensitive and drug-resistant cancer cells; format: cell-based; conditions: more on drug-resistant than on drug-sensitive cells
[1] = system: drug-sensitive cancer cells; assay: viability of drug-sensitive cancer cells; format: cell-based; conditions: after 48 hours in a given concentration
Excerpt: (§1) In order to test the relationship between calcium and transferrin receptors, the effect of calcium channel inhibitors on the regulation of transferrin receptors was studied in drug-sensitive and drug-resistant cancer cells. […]. […] The addition of both iron and calcium channel blockers had no effect on cell viability.
(§2) In light of the above findings, another series of experiments were done to determine whether the restriction of iron by deferoxamine had differential effects on drug-sensitive and drug-resistant cancer cells.

[2] = system: drug-resistant cancer cells; assay: viability of drug-resistant cancer cells; format: cell-based; conditions: after 48 hours in a given concentration
Excerpt: as §1, §2

[3] = system: doxorubicin-resistant cancer cells; conditions: cited from earlier work
advanced ovarian cancer = assay: unpublished clinical study of 23 patients with advanced ovarian cancer; format: in vivo, human; conditions: equivalent to 1 mg doxorubicin per day, days 15 through 19 of monthly cycles; time between diagnosis and randomization 18 months; vs placebo
Description: There is an unpublished clinical study of 23 patients with advanced ovarian cancer who were randomized into test (12 patients) and placebo (11 patients) groups. The test group received transferrin-doxorubicin conjugates equivalent to 1 mg doxorubicin per day on days 15 through 19 of monthly treatment cycles.

[4] = system: metastatic disease from a sarcoma
human mesothelioma cells = conditions: nude mice, compared to animals treated only with doxorubicin; cited from earlier work
[5] = system: leukemic cells in peripheral blood; conditions: cited from earlier work

In the case of `[Cl][Cd][Cl]` [CdCl2, reference compound], the “regulation of transferrin receptors by calcium channel blockers or iron” value (transferrin receptors) is reported as “down-regulation of receptors”.
In the case of `CC(=O)N(O)CCCCCNC(=O)CCC(=O)N(O)CCCCCNC(=O)CCC(=O)N(O)CCCCCN` [deferoxamine], the viability [1] is reported as 93% and the “viability (cells alive)” value [2] is reported as 16%.
For `COc1cccc2c1C(=O)c1c(O)c3c(c(O)c1C2=O)C[C@@](O)(C(=O)CO)C[C@@H]3O[C@H]1C[C@H](N)[C@H](O)[C@H](C)O1` [doxorubicin, reference compound], the “killing of drug-resistant cancer cells” value [3] is listed as “not killed by 10-fold higher concentrations”.
In the case of “transferrin-bound iron: iron bound to transferrin”, the “regulation of transferrin receptors by calcium channel blockers or iron” value (transferrin receptors) is reported as “down-regulated receptors much more on drug-resistant cells”.
In the case of transferrin-doxorubicin conjugates, the “Cox regression estimates of survival rates” value (advanced ovarian cancer) is reported as “significant difference”, the “radiological evidence of tumor” value ([4]; by January) is reported as “no radiological evidence of tumor” and the “metastatic lesions of the lungs” value ([4]; treatment begun August 2000, by November) is reported as “substantially cleared of metastatic lesions”. For the same compound, the survival (human mesothelioma cells) was “significantly prolonging life”, the “killing of drug-resistant cancer cells” value [3] was “effectively kill multi-drug resistant cells” and the “killing of drug-resistant cancer cells” value ([3]; listed as doxorubicin conjugates of transferrin) was “kill doxorubicin-resistant cancer cells”. The toxic effects ([5]; 7 acute leukemia patients, 1 mg/day intravenously for 5 days) was “no toxic effects”, the “decrease of the number of leukemic cells in peripheral blood” value ([5]; 7 patients, within 10-days following therapy) was 86% and the “extension of disease by bone marrow biopsies” value ([5]; before and after treatment) was “no extension of disease”.
